According to ChEMBL document CHEMBL4840307, “Synthesis and biological evaluation of 1-(4-(piperazin-1-yl)phenyl)pyridin-2(1H)-one derivatives as potential SSRIs” (Eur J Med Chem, 2021):
Values belong to the molecule of their own block, whether it stands above or below them. Active and inactive are the calls of the source. No cut-off for these calls is given here.

Tests used:
[1] = target: Sodium-dependent serotonin transporter (Rattus norvegicus, UniProt P31652); assay: Inhibition of serotonin transporter expressed in rat brain tissue assessed as inhibition of [3H]-5-hydroxytryptamine reuptake measured after 15 mins by scintillation counting analysis; assay type: tissue-based
[2] = Cmax in Sprague-Dawley rat at 5 mg/kg, po measured by LC-MS/MS analysis; assay type: ADME, organism-based; parameters: route oral, dose 5 mg/kg; settings: in vivo
[3] = target: T1, 5-hydroxytryptamine receptor 2C (Homo sapiens, UniProt P28335); assay: Inhibition of 5-HT2c (unknown origin)
T1 sequence (P28335 whole entry): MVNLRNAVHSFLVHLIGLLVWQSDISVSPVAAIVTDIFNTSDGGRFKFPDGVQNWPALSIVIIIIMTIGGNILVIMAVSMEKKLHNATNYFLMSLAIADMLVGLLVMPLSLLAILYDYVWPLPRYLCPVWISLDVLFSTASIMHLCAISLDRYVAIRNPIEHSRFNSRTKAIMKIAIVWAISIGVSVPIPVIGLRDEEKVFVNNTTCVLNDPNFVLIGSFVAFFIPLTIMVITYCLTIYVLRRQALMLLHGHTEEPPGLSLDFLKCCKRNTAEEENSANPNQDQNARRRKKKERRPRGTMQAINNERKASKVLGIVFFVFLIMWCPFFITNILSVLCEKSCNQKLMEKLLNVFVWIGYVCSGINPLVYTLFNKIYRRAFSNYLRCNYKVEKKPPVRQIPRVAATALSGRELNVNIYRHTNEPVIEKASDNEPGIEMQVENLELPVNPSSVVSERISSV

[4] = target: T2, 5-hydroxytryptamine receptor 3A (Homo sapiens, UniProt P46098); assay: Inhibition of 5-HT3 (unknown origin)
T2 sequence (P46098 whole entry): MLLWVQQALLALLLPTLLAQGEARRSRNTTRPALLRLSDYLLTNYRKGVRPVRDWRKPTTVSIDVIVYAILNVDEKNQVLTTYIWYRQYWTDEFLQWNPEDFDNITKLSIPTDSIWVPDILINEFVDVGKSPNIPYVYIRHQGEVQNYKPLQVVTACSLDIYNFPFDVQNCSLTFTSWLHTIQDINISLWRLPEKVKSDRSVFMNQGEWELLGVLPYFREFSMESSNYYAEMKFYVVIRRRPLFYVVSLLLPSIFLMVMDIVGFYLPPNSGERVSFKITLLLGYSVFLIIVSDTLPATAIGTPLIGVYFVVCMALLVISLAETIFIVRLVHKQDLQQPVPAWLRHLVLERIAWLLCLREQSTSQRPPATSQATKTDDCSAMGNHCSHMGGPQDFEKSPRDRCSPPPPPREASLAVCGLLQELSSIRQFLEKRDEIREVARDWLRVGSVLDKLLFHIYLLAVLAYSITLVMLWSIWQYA

[5] = Metabolic stability in rat liver microsomes assessed as half life incubated for 60 mins by LC-MS/MS analysis; assay type: ADME, Microsome
[6] = AUC (0 to t) in Sprague-Dawley rat at 2 mg/kg, iv measured by LC-MS/MS analysis; assay type: ADME, organism-based; parameters: dose 2 mg/kg; settings: in vivo
[7] = target: Sodium-dependent serotonin transporter (Rattus norvegicus) (UniProt P31652); assay: Antagonist activity at SERT in Sprague-Dawley rat hypothalamus assessed as PCA induced serotonin depletion at 10 mg/kg, iv measured after 30 mins by LC-MS/MS analysis; assay type: organism-based; settings: filed as antagonist
[8] = Cmax in Sprague-Dawley rat at 2 mg/kg, iv measured by LC-MS/MS analysis; assay type: ADME, organism-based; parameters: route intravenous, dose 2 mg/kg; settings: in vivo
[9] = AUC (0 to t) in Sprague-Dawley rat at 5 mg/kg, po measured by LC-MS/MS analysis; assay type: ADME, organism-based; parameters: dose 5 mg/kg; settings: in vivo
[10] = target: 5-hydroxytryptamine receptor 2A (Homo sapiens, UniProt P28223); assay: Inhibition of 5-HT2a (unknown origin)
[11] = target: T3, 5-hydroxytryptamine receptor 1A (Homo sapiens, UniProt P08908); assay: Inhibition of 5-HT1a (unknown origin)
T3 sequence (P08908 whole entry): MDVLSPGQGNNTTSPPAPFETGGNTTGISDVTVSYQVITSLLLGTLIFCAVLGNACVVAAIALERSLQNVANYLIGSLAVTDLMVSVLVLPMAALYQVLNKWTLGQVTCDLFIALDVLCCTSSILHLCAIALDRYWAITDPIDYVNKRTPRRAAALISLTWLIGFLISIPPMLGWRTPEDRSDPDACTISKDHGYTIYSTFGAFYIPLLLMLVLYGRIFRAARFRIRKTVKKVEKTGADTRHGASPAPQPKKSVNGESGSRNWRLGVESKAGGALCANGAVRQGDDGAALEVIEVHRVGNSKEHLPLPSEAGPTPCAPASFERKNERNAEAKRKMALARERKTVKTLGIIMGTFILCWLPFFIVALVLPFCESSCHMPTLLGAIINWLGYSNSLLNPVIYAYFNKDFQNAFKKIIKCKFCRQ

[12] = Metabolic stability in rat liver microsomes assessed as clearance incubated for 60 mins by LC-MS/MS analysis; assay type: ADME, Microsome; settings: read-out: CLH
[13] = Half life in Sprague-Dawley rat at 2 mg/kg, iv measured by LC-MS/MS analysis; assay type: ADME, organism-based; settings: in vivo
[14] = Half life in Sprague-Dawley rat at 5 mg/kg, po measured by LC-MS/MS analysis; assay type: ADME, organism-based; settings: in vivo
[15] = tested on: Rattus norvegicus; assay: Antidepressant-like activity in rat assessed as reduction in immobility time at 3 ml/kg, sc measured after 60 mins by Forced swimming test; assay type: functional, organism-based
[16] = tested on: Rattus norvegicus; assay: Antidepressant-like activity in rat assessed as reduction in immobility time at 10 ml/kg, sc measured after 60 mins by Forced swimming test; assay type: functional, organism-based
[17] = Oral bioavailability in Sprague-Dawley rat at 5 mg/kg measured by LC-MS/MS analysis; assay type: ADME, organism-based; settings: in vivo
[18] = Clearance in Sprague-Dawley rat at 2 mg/kg, iv measured by LC-MS/MS analysis; assay type: ADME, organism-based; settings: in vivo
[19] = Volume of distribution in steady state in Sprague-Dawley rat at 2 mg/kg, iv measured by LC-MS/MS analysis; assay type: ADME, organism-based; settings: in vivo, read-out: Vdss

Chain of Sodium-dependent serotonin transporter (P31652 whole entry): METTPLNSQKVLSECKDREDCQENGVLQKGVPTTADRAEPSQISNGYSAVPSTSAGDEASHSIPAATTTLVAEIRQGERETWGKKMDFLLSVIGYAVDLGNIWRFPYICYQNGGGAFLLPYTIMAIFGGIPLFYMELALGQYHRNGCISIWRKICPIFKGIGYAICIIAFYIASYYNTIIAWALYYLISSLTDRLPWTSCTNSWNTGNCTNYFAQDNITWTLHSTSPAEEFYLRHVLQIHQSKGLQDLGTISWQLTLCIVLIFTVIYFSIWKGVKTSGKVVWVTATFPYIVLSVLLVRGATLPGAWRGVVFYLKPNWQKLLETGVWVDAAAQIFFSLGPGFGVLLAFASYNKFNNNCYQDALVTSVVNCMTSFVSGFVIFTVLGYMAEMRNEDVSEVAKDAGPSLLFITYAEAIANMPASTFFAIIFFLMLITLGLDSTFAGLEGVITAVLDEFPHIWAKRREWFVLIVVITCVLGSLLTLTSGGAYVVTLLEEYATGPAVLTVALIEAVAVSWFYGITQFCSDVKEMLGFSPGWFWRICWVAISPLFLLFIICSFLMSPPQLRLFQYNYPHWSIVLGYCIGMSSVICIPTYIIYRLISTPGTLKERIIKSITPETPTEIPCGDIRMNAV
Chain of 5-hydroxytryptamine receptor 2A (P28223 whole entry): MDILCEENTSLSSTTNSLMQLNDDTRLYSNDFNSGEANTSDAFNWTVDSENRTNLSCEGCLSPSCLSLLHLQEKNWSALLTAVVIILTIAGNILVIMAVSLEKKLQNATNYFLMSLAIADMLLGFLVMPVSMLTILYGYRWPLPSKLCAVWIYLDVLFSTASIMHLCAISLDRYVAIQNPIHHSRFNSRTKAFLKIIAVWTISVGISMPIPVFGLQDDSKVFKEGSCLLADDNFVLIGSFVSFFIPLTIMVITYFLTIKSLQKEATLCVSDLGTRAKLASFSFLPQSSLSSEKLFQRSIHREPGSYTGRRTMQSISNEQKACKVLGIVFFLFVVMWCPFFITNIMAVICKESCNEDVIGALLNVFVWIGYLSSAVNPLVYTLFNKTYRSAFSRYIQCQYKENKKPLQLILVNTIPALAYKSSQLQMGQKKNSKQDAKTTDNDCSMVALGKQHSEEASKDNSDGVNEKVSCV
Chain of Sodium-dependent serotonin transporter (Rattus norvegicus) (P31652 whole entry): as the sequence (P31652 whole entry) above

SMILES: Cc1ccn(-c2ccc(N3CCN(CCc4c[nH]c5ccc(C#N)cc45)CC3)cc2)c(=O)c1
IC50 [1]: 7.57 nM

SMILES: N#Cc1ccc2[nH]cc(CCCN3CCN(c4ccc(-n5cc(F)ccc5=O)cc4)CC3)c2c1
IC50 [1]: 2.22 nM

SMILES: N#Cc1ccc2[nH]cc(CCCCCN3CCN(c4ccc(-n5cc(F)ccc5=O)cc4)CC3)c2c1
IC50 [1]: 6 nM

SMILES: N#Cc1ccc2[nH]cc(CCCCN3CCN(c4ccc(-n5cc(F)ccc5=O)cc4)CC3)c2c1
IC50 [1]: 3.75 nM

SMILES: Cc1ccn(-c2ccc(N3CCN(CCCc4c[nH]c5ccc(C#N)cc45)CC3)cc2)c(=O)c1
IC50 [1]: 2.02 nM

SMILES: N#Cc1ccc2[nH]cc(CCCCN3CCN(c4ccc5oc(C(N)=O)cc5c4)CC3)c2c1 [VILAZODONE]
half-life [5]: 0.298 h
CLint scaled [12]: 77.3 mL/min/kg

SMILES: N#Cc1ccc2[nH]cc(CCN3CCN(c4ccc(-n5cc(F)ccc5=O)cc4)CC3)c2c1
IC50 [1]: 5.51 nM

SMILES: COc1ccn(-c2ccc(N3CCN(CCCc4c[nH]c5ccc(C#N)cc45)CC3)cc2)c(=O)c1
IC50 [1]: 4.58 nM

Second part, led by results:

IC50 [1]: 1.35 nM
SMILES: N#Cc1ccc2[nH]cc(CCCCCN3CCN(c4ccc(-n5ccccc5=O)cc4)CC3)c2c1

IC50 [1]: 2.03 nM
SMILES: Cc1ccn(-c2ccc(N3CCN(CCCCc4c[nH]c5ccc(C#N)cc45)CC3)cc2)c(=O)c1

IC50 [1]: 10.2 nM
SMILES: N#Cc1ccc2[nH]cc(CCCN3CCN(c4ccc(-n5ccc6ccccc6c5=O)cc4)CC3)c2c1

Cmax [2]: 70.5 ng/mL
IC50 [3]: > 10000 nM
IC50 [4]: > 10000 nM
half-life [5]: 1.89 h
AUC(0-t) [6]: 823 ng·h/mL
Activity [7]: Active
Cmax [8]: 831 ng/mL
AUC(0-t) [9]: 189 ng·h/mL
IC50 [10]: > 10000 nM
IC50 [11]: 0.5 nM
CLint scaled [12]: 12.2 mL/min/kg
half-life [13]: 1.01 h
half-life [14]: 0.82 h
bioavailability [17]: 9.19%
clearance [18]: 40.8 mL/min/kg
Vd [19]: 2.47 L/kg
SMILES: N#Cc1ccc2[nH]cc(CCCCN3CCN(c4ccc(-n5ccc6ncccc6c5=O)cc4)CC3)c2c1
Activity [15]: Active
Activity [16]: Active

IC50 [1]: 1.6 nM
SMILES: N#Cc1ccc2[nH]cc(CCCCN3CCN(c4ccc(-n5ccccc5=O)cc4)CC3)c2c1

IC50 [1]: 4.31 nM
SMILES: N#Cc1ccc2[nH]cc(CCCCN3CCN(c4ccc(-n5ccc6ccccc6c5=O)cc4)CC3)c2c1

IC50 [3]: > 10000 nM
IC50 [4]: > 10000 nM
half-life [5]: 0.0735 h
IC50 [10]: > 10000 nM
IC50 [11]: 1.7 nM
CLint scaled [12]: 315 mL/min/kg
SMILES: N#Cc1ccc2[nH]cc(CCCN3CCN(c4ccc(-n5ccc6ncccc6c5=O)cc4)CC3)c2c1

Cmax [2]: 33.6 ng/mL
IC50 [3]: > 10000 nM
IC50 [4]: > 10000 nM
half-life [5]: 5.2 h
AUC(0-t) [6]: 559 ng·h/mL
Cmax [8]: 694 ng/mL
AUC(0-t) [9]: 77 ng·h/mL
IC50 [10]: > 10000 nM
IC50 [11]: 0.14 nM
CLint scaled [12]: 4.4 mL/min/kg
half-life [13]: 1.26 h
half-life [14]: 2.26 h
bioavailability [17]: 5.8%
clearance [18]: 59.3 mL/min/kg
Vd [19]: 3.21 L/kg
SMILES: N#Cc1ccc2[nH]cc(CCCCN3CCN(c4ccc(-n5ccc6occc6c5=O)cc4)CC3)c2c1
